Results published in patent publication US4921984A, “Novel platinum complexes” (Nippon Kayaku Kabushiki Kaisha, priority 1985, dated 1990).

Assays:
[1] = tested on: cis-Platin resistant mouse leukemia P388 cells; assay: Growth inhibition test on cis-Platin resistant P388 tumor cells; assay type: cell-based; conditions: ratio of IC50 on cis-Platin resistant to non-resistant P388 cells
Text: (§1) 1×10^5 mouse leukemia L1210 cells or 1×10^5 mouse leukemia P388 cells were inoculated into the abdominal cavities of CDF1 female mouse. […] After 5 days, their tumor cells were inoculated to the abdominal cavities of other CDF1 female mouse, and the same treatment was applied.

[2] = tested on: mouse fibrosarcoma M5076 cells; assay: Antitumor activity test in vivo, fibrosarcoma M5076; conditions: M5076 inoculated s.c., i.p. administration
Procedure: (§2) 1×10^6 mouse leukemia P388 cells were inoculated into the abdominal cavities of 6-week-old female CDF1 mice, and from the next day a compound No. 15 was administered to them intraperitoneally once a day for 5 consecutive days. Separately, 1×10^6 mouse lung cancer Lewis lung carcinoma (LL) cells were inoculated into the abdominal cavities of male BDFl mice, and from the next day a compound No. 15 was administered to them intraperitoneally once a day for 5 consecutive days. Separately, 1×10^6 mouse fibrosarcoma M5076 cells were inoculated into the body sides of female C57BL/6 mice subcutaneously, and from the next day a compound No. 15 was administered to them intraperitoneally. Separately, 1×10^6 mouse colon cancer (colon 26) cells were inoculated into the abdominal cavities of female CDF1 mice, and from the next day a compound No. 15 was administered to them intraperitoneally. To respective control groups (compound-non-treated groups), physiological saline solution was administered.
(§3) From the survival times of the compound-treated group and the control group, respective median values (median survival times) were calculated. Using these values, T/C percentage was calculated from the following equation. [formula]

[3] = tested on: mouse lung cancer Lewis lung carcinoma (LL) cells; assay: Antitumor activity test in vivo, Lewis lung carcinoma (LL); conditions: i.p. once a day for 5 days; for Max (T/C): median survival time
Procedure: as §2, §3

[4] = tested on: mouse leukemia L1210; assay: Antitumor activity test on mouse leukemia L1210 in vivo; conditions: for max (T/C): L1210, average survival time treated/control ×100, i.p. once a day for 5 days; for Opt. dose: L1210, dose giving max (T/C); for Opt. dose / LD50: i.p. once a day for 5 days; for LD50: L1210-bearing CDF1 mice
Procedure: Mice of compound-non-treated group (control group) were administered with physiological saline solution in the same manner. The average survival times of the compound-treated group and the control group (abbreviated as T and C, respectively) were measured and T/C percentage (T/C×100) was calculated from the following equation. [formula]
In Table 4, max (T/C) means the maximum value of T/C and optimum dose (opt. dose) means an administration amount giving the max namely, an optimum administration amount.

[5] = tested on: mouse leukemia L1210 cells; assay: Growth inhibition test on cultured mouse leukemia L1210 cells; assay type: cell-based; conditions: RPMI 1640 with 10% fetal calf serum
Procedure: Mouse leukemia L1210 cells were cultured in a RPMI 1640 medium containing 10% of fetal calf serum.

[6] = tested on: mouse colon cancer (colon 26) cells; assay: Antitumor activity test in vivo, colon 26
Procedure: as §2, §3

[7] = tested on: cis-Platin resistant mouse leukemia L1210 cells; assay: Growth inhibition test on cis-Platin resistant L1210 tumor cells; assay type: cell-based; conditions: ratio of IC50 on cis-Platin resistant to non-resistant L1210 cells
Text: as §1

[8] = tested on: mouse leukemia P388 cells; assay: Antitumor activity test in vivo, mouse leukemia P388; conditions: for Opt. dose: P388, i.p. once a day for 5 days; for Max (T/C): P388, median survival time, i.p. once a day for 5 days
Procedure: as §2, §3

[9] = Test for renal toxicity; conditions: mouse, in vivo
Procedure: A compound was administered one time to 6-week-old male CDFl mice intraperitoneally. After 4 days, their blood was collected for measurement of blood urea nitrogen concentration (BUN value).
In Table 6, body weight ratio is a ratio of body weight after 4 days from administration to body weight of administration day.

[10] = tested on: various tumor cells; assay: Antitumor activity on various tumors (general statement); assay type: in vivo, mouse; conditions: in words
Procedure: as §2, §3

[11] = rate, in words; prior art; cited from earlier work

Compound	Solubility in water [mg/mL]	IC50 R/IC50, Tumor cell P388 [1]	Opt. dose [2] [mg/kg]	Max (T/C) ([2]; median survival time) [%]	Opt. dose [3] [mg/kg]	Max (T/C) [3] [%]	max (T/C) [4] [%]	Opt. dose [4] [mg/kg]	LD50 [4] [mg/kg]	IC50 [5] [µg/mL]	Opt. dose ([6]; Colon 26, i.p. administration) [mg/kg]	Max (T/C) ([6]; Colon 26, median survival time, i.p. administration) [%]	IC50 R/IC50, Tumor cell L1210 [7]	Opt. dose [8] [mg/kg]	Max (T/C) [8] [%]	renal toxicity [9]	antitumor effect [10]	Solubility in physiological saline solution (physiological saline) [mg/ml]	dissolution in water [11]
CC1CC[NH2+][Pt-2]2([NH2+]C1)[O]C(=O)C1(CCC1)C(=O)[O]2 (racemic) [Compound No. 15, cis-Cyclobutane-1,1-dicarboxylato-2-methyl-1,4-butanediamine platinum]	> 8	3.26	16	152	32	222	182	32	80.0	1.20	32	198	3.19	32	260				
C[C@@H](CN)CCN.O=C([O-])C1(C(=O)[O-])CCC1.[Pt+2] (stereo in doubt) [15R, cis-cyclobutane-1,1-dicarboxylato-R-2-methyl-1,4-butanediamine platinum]	> 15				30	166	189	32	33.6	0.78				20	253	very low renal toxicity	excellent antitumor activities on various tumor cells		
C[C@H]1CC[NH2+][Pt-2]2([NH2+]C1)[O]C(=O)C1(CCC1)C(=O)[O]2 [15S, cis-cyclobutane-1,1-dicarboxylato-S-2-methyl-1,4-butanediamine platinum]	> 15				50	164	206	32	48.0	1.08				40	253	very low renal toxicity	excellent antitumor activities on various tumor cells		
CC1(C)CCC[NH2+][Pt-2]([Cl])([Cl])[NH2+]1 [Compound No. 25, cis-Dichloro-1,1-dimethyl-1,4-butanediamine platinum]							150	2	3.0	0.25								> 2	
N.N.[Cl][Pt][Cl] [cis-Platin, cis-dichlorodiammineplatinum, reference compound]								4											dissolving in water slowly
